Experimental data taken from US11331314B2, “Amine substituted triazole derivatives and uses thereof” (Bayer Pharma Aktiengesellschaft, priority 2017, dated 2022).

Tests used:
human V1a receptor = human V1a receptor (Homo sapiens, UniProt P37288); assay: Cellular in vitro assay for determining vasopressin receptor activity, V1a receptor cell line (photoprotein luminescence); assay type: cell-based; conditions: for IC50: CHO cell line transfected with the human V1a receptor, agonist [Arg8]-vasopressin at EC50 concentration, read-out: IC50 hV1a; for ratio IC50 hV2/hV1a: selectivity ratio of the cellular IC50 values
Sequence of human V1a receptor (P37288 whole entry): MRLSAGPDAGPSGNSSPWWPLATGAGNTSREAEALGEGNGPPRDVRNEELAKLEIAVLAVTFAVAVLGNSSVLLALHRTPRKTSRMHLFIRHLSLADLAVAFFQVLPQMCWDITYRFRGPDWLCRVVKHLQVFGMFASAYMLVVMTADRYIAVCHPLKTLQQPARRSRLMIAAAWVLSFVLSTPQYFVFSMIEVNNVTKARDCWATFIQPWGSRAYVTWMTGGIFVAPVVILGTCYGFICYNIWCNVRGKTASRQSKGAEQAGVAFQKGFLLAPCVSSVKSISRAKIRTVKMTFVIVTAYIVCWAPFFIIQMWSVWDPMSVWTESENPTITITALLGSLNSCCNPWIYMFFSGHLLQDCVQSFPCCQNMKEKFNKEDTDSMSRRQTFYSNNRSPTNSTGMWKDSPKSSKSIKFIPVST
Description: (§1) B-1. Cellular In Vitro Assay for Determining Vasopressin Receptor Activity
(§2) The identification of agonists and antagonists of the V1a and V2 vasopressin receptors from humans, rats and dogs as well as the quantification of the activity of the compounds of the invention is carried out using recombinant cell lines. These cell lines originally derive from a hamster's ovary epithelial cell (Chinese Hamster Ovary, CHO K1, ATCC: American Type Culture Collection, Manassas, Va. 20108, USA). The test cell lines constitutively express the human, rat or dog V1a or V2 receptors. In case of the Gαq-coupled V1a receptors, cells are also stably transfected with a modified form of the calcium-sensitive photoproteins aequorin (human and rat V1a) or obelin (dog V1a), which, after reconstitution with the cofactor coelenterazine, emit light when there are increases in free calcium concentrations [Rizzuto R, Simpson A W, Brini M, Pozzan T, Nature 358, 325-327 (1992); Illarionov B A, Bondar V S, Illarionova V A, Vysotski E S, Gene 153 (2), 273-274 (1995)]. The resulting vasopressin receptor cells react to stimulation of the recombinantly expressed V1a receptors by intracellular release of calcium ions, which can be quantified by the resulting photoprotein luminescence. The Gs-coupled V2 receptors are stably transfected into cell lines expressing the gene for firefly luciferase under control of a CRE-responsible promoter. Activation of V2 receptors induces the activation of the CRE-responsive promoter via cAMP increase, thereby inducing the expression of firefly luciferase. The light emitted by photoproteins of V1a cell lines as well as the light emitted by firefly luciferase of V2 cell lines corresponds to the activation or inhibition of the respective vasopressin receptor. The bioluminescence of the cell lines is detected using a suitable luminometer [Milligan G, Marshall F, Rees S, Trends in Pharmacological Sciences 17, 235-237 (1996)].
Vasopressin V1a Receptor Cell Lines:
On the day before the assay, the cells are plated out in culture medium (DMEM/F12, 2% FCS, 2 mM glutamine, 10 mM HEPES, 5 μg/ml coelenterazine) in 384-well microtiter plates and kept in a cell incubator (96% humidity, 5% v/v CO2, 37° C.). On the day of the assay, test compounds in various concentrations are placed for 10 minutes in the wells of the microtiter plate before the agonist [Arg^8]-vasopressin at EC50 concentration is added. The resulting light signal is measured immediately in a luminometer.
(§3) Table 1A below lists individual IC50 values for the compounds of the invention (including racemic mixtures as well as separated enantiomers) that were obtained from cell lines transfected with the human V1a or V2 receptor: […]

human V2 receptor = biological target: T1, human V2 receptor (Homo sapiens, UniProt P30518); assay: Cellular in vitro assay for determining vasopressin receptor activity, V2 receptor cell line (CRE-luciferase); assay type: cell-based; conditions: CHO cell line transfected with the human V2 receptor; agonist [Arg8]-vasopressin at EC50 concentration; read-out: IC50 hV2
T1 construct: expressed in transfected cells; host or cells: CHO K1 (ATCC) expressing firefly luciferase under a CRE-responsive promoter
T1 sequence (P30518 whole entry): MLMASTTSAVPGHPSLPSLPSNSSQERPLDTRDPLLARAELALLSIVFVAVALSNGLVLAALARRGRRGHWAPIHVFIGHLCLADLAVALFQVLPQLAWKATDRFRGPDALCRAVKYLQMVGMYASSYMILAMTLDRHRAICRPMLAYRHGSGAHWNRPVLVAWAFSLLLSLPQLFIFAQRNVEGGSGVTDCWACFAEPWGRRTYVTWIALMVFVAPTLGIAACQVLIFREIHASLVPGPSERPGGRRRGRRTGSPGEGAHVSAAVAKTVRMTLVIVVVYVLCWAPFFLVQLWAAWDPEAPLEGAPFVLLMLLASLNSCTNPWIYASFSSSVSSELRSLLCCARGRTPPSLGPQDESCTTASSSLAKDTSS
Description: as §1, §2
Vasopressin V2 Receptor Cell Lines:
On the day before the assay, the cells are plated out in culture medium (DMEM/F12, 2% FCS, 2 mM glutamine, 10 mM HEPES) in 384-well microtiter plates and kept in a cell incubator (96% humidity, 5% v/v CO2, 37° C.). On the day of the assay, test compounds in various concentrations and the agonist [Arg^8]-vasopressin at EC50 concentration are added together to the wells, and plates are incubated for 3 hours in a cell incubator. Upon addition of the cell lysis reagent Triton™ and the substrate luciferin, luminescence of firefly luciferase is measured in a luminometer.
as §3

Structure (SMILES) | IC50 (human V1a receptor) [nM] | ratio IC50 hV2/hV1a (human V1a receptor) | IC50 (human V2 receptor) [nM]
NC(CNc1nc(Cn2nc(-c3ccc(Cl)cc3)n(C[C@H](O)C(F)(F)F)c2=O)nn1-c1ccccc1Cl)C(F)(F)F (mixture of isomers) [Example 6, 2-{[5-{[2-Amino-3,3,3-trifluoropropyl]amino}-1-(2-chlorophenyl)-1H-1,2,4-triazol-3-yl]methyl}-5-(4-chlorophenyl)-4-[(2S)-3,3,3-trifluoro-2-hydroxypropyl]-2,4-dihydro-3H-1,2,4-triazol-3-one] | 0.39 | 8.9 | 3.45
NCC(O)CNc1nc(Cn2nc(-c3ccc(Cl)cc3)n(C[C@H](O)C(F)(F)F)c2=O)nn1-c1ccccc1Cl (mixture of isomers) [Example 11, 2-{[5-{[3-Amino-2-hydroxypropyl]amino}-1-(2-chlorophenyl)-1H-1,2,4-triazol-3-yl]methyl}-5-(4-chlorophenyl)-4-[(2S)-3,3,3-trifluoro-2-hydroxypropyl]-2,4-dihydro-3H-1,2,4-triazol-3-one] | 0.93 | 5.0 | 4.65
O=C1NCC(CNc2nc(Cn3nc(-c4ccc(Cl)cc4)n(C[C@H](O)C(F)(F)F)c3=O)nn2-c2ccccc2Cl)O1 (mixture of isomers) [Example 12, 5-(4-Chlorophenyl)-2-{[1-(2-chlorophenyl)-5-({[2-oxo-1,3-oxazolidin-5-yl]methyl}amino)-1H-1,2,4-triazol-3-yl]methyl}-4-[(2S)-3,3,3-trifluoro-2-hydroxypropyl]-2,4-dihydro-3H-1,2,4-triazol-3-one] | 1.2 | 2.0 | 2.45
O=c1n(Cc2nc(N3CCC(O)(C(F)(F)F)C3)n(-c3ccccc3Cl)n2)nc(-c2ccc(Cl)cc2)n1C[C@H](O)C(F)(F)F (mixture of isomers) [Example 13, 5-(4-Chlorophenyl)-2-({1-(2-chlorophenyl)-5-[3-hydroxy-3-(trifluoromethyl)pyrrolidin-1-yl]-1H-1,2,4-triazol-3-yl}methyl)-4-[(2S)-3,3,3-trifluoro-2-hydroxypropyl]-2,4-dihydro-3H-1,2,4-triazol-3-one] | 0.35 | 6.5 | 2.25
O=C1NCCC1Nc1nc(Cn2nc(-c3ccc(Cl)cc3)n(C[C@H](O)C(F)(F)F)c2=O)nn1-c1ccccc1Cl (mixture of isomers) [Example 16, 5-(4-Chlorophenyl)-2-{[1-(2-chlorophenyl)-5-{[2-oxopyrrolidin-3-yl]amino}-1H-1,2,4-triazol-3-yl]methyl}-4-[(2S)-3,3,3-trifluoro-2-hydroxypropyl]-2,4-dihydro-3H-1,2,4-triazol-3-one] | 0.33 | 2.5 | 0.82
CC(C)(C)OC(=O)N1CCCC(O)(CNc2nc(Cn3nc(-c4ccc(Cl)cc4)n(C[C@H](O)C(F)(F)F)c3=O)nn2-c2ccccc2Cl)CC1 (mixture of isomers) [Example 19, tert-Butyl 4-({[1-(2-chlorophenyl)-3-({3-(4-chlorophenyl)-5-oxo-4-[(2S)-3,3,3-trifluoro-2-hydroxypropyl]-4,5-dihydro-1H-1,2,4-triazol-1-yl}methyl)-1H-1,2,4-triazol-5-yl]amino}methyl)-4-hydroxyazepane-1-carboxylate] | 2.55 | 14.9 | 38
O=c1n(Cc2nc(NCC3(O)CCCNCC3)n(-c3ccccc3Cl)n2)nc(-c2ccc(Cl)cc2)n1C[C@H](O)C(F)(F)F (mixture of isomers) [Example 20] | 0.42 | 28.6 | 12
CC(N)(CNc1nc(Cn2nc(-c3ccc(Cl)cc3)n(C[C@H](O)C(F)(F)F)c2=O)nn1-c1ccccc1Cl)C(F)(F)F (mixture of isomers) [Example 27, 2-{[5-{[2-Amino-3,3,3-trifluoro-2-methylpropyl]amino}-1-(2-chlorophenyl)-1H-1,2,4-triazol-3-yl]methyl}-5-(4-chlorophenyl)-4-[(2S)-3,3,3-trifluoro-2-hydroxypropyl]-2,4-dihydro-3H-1,2,4-triazol-3-one] | 0.35 | 3.7 | 1.28
CC1(O)CCN(c2nc(Cn3nc(-c4ccc(Cl)cc4)n(C[C@H](O)C(F)(F)F)c3=O)nn2-c2ccccc2Cl)C1 (mixture of isomers) [Example 29, 5-(4-Chlorophenyl)-2-({1-(2-chlorophenyl)-5-[3-hydroxy-3-methylpyrrolidin-1-yl]-1H-1,2,4-triazol-3-yl}methyl)-4-[(2S)-3,3,3-trifluoro-2-hydroxypropyl]-2,4-dihydro-3H-1,2,4-triazol-3-one] | 1.05 | 4.7 | 4.9
NC(=O)C1CN(c2nc(Cn3nc(-c4ccc(Cl)cc4)n(C[C@H](O)C(F)(F)F)c3=O)nn2-c2ccccc2Cl)CCN1 (mixture of isomers) [Example 33, 4-[1-(2-Chlorophenyl)-3-({3-(4-chlorophenyl)-5-oxo-4-[(2S)-3,3,3-trifluoro-2-hydroxypropyl]-4,5-dihydro-1H-1,2,4-triazol-1-yl}methyl)-1H-1,2,4-triazol-5-yl]piperazine-2-carboxamide] | 0.37 | 25.2 | 9.25
O=CN1CCC(Nc2nc(Cn3nc(-c4ccc(Cl)cc4)n(C[C@H](O)C(F)(F)F)c3=O)nn2-c2ccccc2Cl)C1 (mixture of isomers) [Example 41, 3-{[1-(2-Chlorophenyl)-3-({3-(4-chlorophenyl)-5-oxo-4-[(2S)-3,3,3-trifluoro-2-hydroxypropyl]-4,5-dihydro-1H-1,2,4-triazol-1-yl}methyl)-1H-1,2,4-triazol-5-yl]amino}pyrrolidine-1-carbaldehyde] | 0.93 | 8.0 | 7.4
COC1CCN(c2nc(Cn3nc(-c4ccc(Cl)cc4)n(C[C@H](O)C(F)(F)F)c3=O)nn2-c2ccccc2Cl)C1 (mixture of isomers) [Example 42, 5-(4-Chlorophenyl)-2-({1-(2-chlorophenyl)-5-[3-methoxypyrrolidin-1-yl]-1H-1,2,4-triazol-3-yl}methyl)-4-[(2S)-3,3,3-trifluoro-2-hydroxypropyl]-2,4-dihydro-3H-1,2,4-triazol-3-one] | 0.48 | 4.0 | 1.9
O=c1n(Cc2nc(N3CCC(O)C3)n(-c3ccccc3Cl)n2)nc(-c2ccc(Cl)cc2)n1C[C@H](O)C(F)(F)F (mixture of isomers) [Example 43, 5-(4-Chlorophenyl)-2-({1-(2-chlorophenyl)-5-[3-hydroxypyrrolidin-1-yl]-1H-1,2,4-triazol-3-yl}methyl)-4-[(2S)-3,3,3-trifluoro-2-hydroxypropyl]-2,4-dihydro-3H-1,2,4-triazol-3-one] | 0.42 | 10.5 | 4.4
O=c1n(Cc2nc(NCC(O)C(F)(F)F)n(-c3ccccc3Cl)n2)nc(-c2ccc(Cl)cc2)n1C[C@H](O)C(F)(F)F (mixture of isomers) [Example 53, 5-(4-Chlorophenyl)-2-{[1-(2-chlorophenyl)-5-{[3,3,3-trifluoro-2-hydroxypropyl]amino}-1H-1,2,4-triazol-3-yl]methyl}-4-[(2S)-3,3,3-trifluoro-2-hydroxypropyl]-2,4-dihydro-3H-1,2,4-triazol-3-one] | 0.52 | 3.6 | 1.85
O=C1CCC(Nc2nc(Cn3nc(-c4ccc(Cl)cc4)n(C[C@H](O)C(F)(F)F)c3=O)nn2-c2ccccc2Cl)CN1 (mixture of isomers) [Example 60, 5-{[1-(2-Chlorophenyl)-3-({3-(4-chlorophenyl)-5-oxo-4-[(2S)-3,3,3-trifluoro-2-hydroxypropyl]-4,5-dihydro-1H-1,2,4-triazol-1-yl}methyl)-1H-1,2,4-triazol-5-yl]amino}piperidin-2-one] | 0.44 | 12.3 | 5.4
